# Legend:
# in vitro [1] = conditions: mouse, liver microsomes
# in vitro [2] = conditions: human, liver microsomes
"half-life at 1 h, 1 µM (in vitro [1])","half-life at 1 h, 1 µM (in vitro [2])",Compound
27.7 min,16.9 min,COC1CCCC2(CCNCC2)CNc2nc(n3ncc(C(C)C)c3n2)NCc2ccccc2OC1 (centres undefined)
105 min,> 186 min,CC(C)c1cnn2c(NCc3ccccc3)cc(NC[C@H]3CCNC[C@@H]3O)nc12 [CT-7001]

# Source: ChEMBL document CHEMBL5543135, “Design and Synthesis of Novel Macrocyclic Derivatives as Potent and Selective Cyclin-Dependent Kinase 7 Inhibitors” (J Med Chem, 2024)
